Test results taken from the NIST ThermoML archive (doi:10.1016/j.fluid.2010.04.018).

Assay: xn = mol fraction of the nth substance listed
Conditions: Liquid, Vibrating tube method

C1CCOC1 [tetrahydrofuran] + O=C=O
Conditions | mass density [kg/m3]
298.15 K, x2 = 0.388 | 906.5
298.15 K, x2 = 0.47 | 910.1
298.15 K, x2 = 0.588 | 912.1
298.15 K, x2 = 0.703 | 906.9
298.15 K, x2 = 0.828 | 883.3
298.15 K, x2 = 0.941 | 819.3
298.15 K, x2 = 0.983 | 763.3
313.15 K, x2 = 0.301 | 879.8
313.15 K, x2 = 0.428 | 883.6
313.15 K, x2 = 0.542 | 883
313.15 K, x2 = 0.665 | 873.1
313.15 K, x2 = 0.788 | 842.6
313.15 K, x2 = 0.881 | 787.7
313.15 K, x2 = 0.921 | 737.7
313.15 K, x2 = 0.938 | 699.9
